We go through 7 compounds from patent US6291532A, “Use of N-aryl-2-hydroxyalkylamides for stimulating or inducing hair growth and/or arresting hair loss” (L'Oreal, priority 1996, dated 2001).

Read-outs that look alike come from different tables or passages of the source.

As a reminder, the IC50 is the concentration at which inhibition is half-maximal.

In one assay the test system is potassium channels. The assay can be described thus: IC50 of the compounds for their effect on the potassium channels. Format: biochemical. The note with it: for IC50: methods of Newgreen et al., Bray et al. and wickerden et al., concentration which decreases by 50% an induced pharmacological mechanism such as muscular contraction, read-out: IC50 K+ Channels; for opening effect for potassium channels (in words): summary in words of the table of Example 1. As to the method: (§1) The IC50 corresponds to the concentration which decreases by 50% either an induced pharmacological mechanism, such as muscular contraction,or the attachment of a molecule to its membrane receptor.
In order to determine the IC50 of the compounds for their effect on the potassium channels, they were tested according to the methods of Newgreen et al. (Br. J. Pharmacol., 1990, 100, 605-613), Bray et al. (Arch. Pharmacol., 1991, 344, 351-359) and wickerden et al. (Br. J. Pharmacol., 1991, 103, 1148-1152).
(§2) The values are given in μM

The next assay concerns the target T1, androgen receptors (Rattus norvegicus, UniProt P15207).
T1 construct: from tissue; host or cells: rat ventral prostate cytosol, inferred from the cited method
T1 sequence (P15207 1-902): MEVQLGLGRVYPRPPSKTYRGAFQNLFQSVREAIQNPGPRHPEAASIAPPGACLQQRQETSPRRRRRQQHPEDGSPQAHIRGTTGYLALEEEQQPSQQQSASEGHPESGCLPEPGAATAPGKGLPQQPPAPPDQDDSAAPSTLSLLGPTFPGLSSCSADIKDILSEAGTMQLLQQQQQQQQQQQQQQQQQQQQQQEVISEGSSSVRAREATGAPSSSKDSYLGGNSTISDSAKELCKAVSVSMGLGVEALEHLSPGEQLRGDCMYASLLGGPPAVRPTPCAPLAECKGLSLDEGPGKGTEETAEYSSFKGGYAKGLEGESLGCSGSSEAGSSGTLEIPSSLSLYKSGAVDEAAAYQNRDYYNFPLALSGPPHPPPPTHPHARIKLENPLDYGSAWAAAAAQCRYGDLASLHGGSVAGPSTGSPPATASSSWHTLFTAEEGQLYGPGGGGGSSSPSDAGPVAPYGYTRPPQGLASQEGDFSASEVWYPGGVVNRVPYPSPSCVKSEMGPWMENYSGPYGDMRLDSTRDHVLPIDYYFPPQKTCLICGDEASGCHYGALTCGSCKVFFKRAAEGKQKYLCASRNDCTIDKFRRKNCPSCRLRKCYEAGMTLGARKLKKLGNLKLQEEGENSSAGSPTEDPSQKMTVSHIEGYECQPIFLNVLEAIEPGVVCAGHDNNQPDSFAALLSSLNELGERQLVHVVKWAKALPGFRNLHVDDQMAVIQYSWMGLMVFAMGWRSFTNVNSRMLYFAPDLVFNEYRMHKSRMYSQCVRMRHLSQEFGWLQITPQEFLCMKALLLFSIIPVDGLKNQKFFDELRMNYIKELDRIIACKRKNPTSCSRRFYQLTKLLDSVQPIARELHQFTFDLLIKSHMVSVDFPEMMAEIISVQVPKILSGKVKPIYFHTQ
Kind of assay: IC50 of the compounds for their effect on the androgen receptors. Format: binding. The note with it: for affinity for the androgen receptor (in words): summary in words of the table of Example 1. The procedure: as §1
In order to determine the IC50 of the compounds for their effect on the androgen receptors, they were tested according to the method of Schilling and Liao ("The Prostate", 1984, 5, 581-588).
as §2

Setting [1] is: method of Schilling and Liao, concentration which decreases by 50% the attachment of a molecule to its receptor, read-out: IC50 Androgen receptors.

With `CC(O)(C(=O)Nc1ccc(C#N)c(C(F)(F)F)c1)C(F)(F)F` (stereo not shown) [A, N-(4-cyano-3-(trifluoromethyl)phenyl)-3,3,3-trifluoro-2-hydroxy-2-methylpropionamide], in the assay on potassium channels, the IC50 was 500 nM and the “opening effect for potassium channels (in words)” value (“opening effect” below) is “excellent opening effect”. Further, on androgen receptors, it took 1000 nM to reach half-maximal inhibition (IC50) and the “affinity for the androgen receptor (in words)” value (from here on “affinity”) is “good affinity”.

Take `CC(O)(C(=O)Nc1ccc(C#N)c(C(F)(F)F)c1)c1ccccc1` (stereo not shown) [D, N-(4-cyano-3-(trifluoromethyl)phenyl)-2-hydroxy-2-phenylpropionamide]: in the assay on potassium channels, the 50% inhibitory concentration (IC50) worked out at 3000 nM and the “opening effect” value is on record as “excellent opening effect”. Further, on androgen receptors, it took 3000 nM to reach half-maximal inhibition (IC50) and the “affinity” value is “good affinity”.

For `CC(O)(C(=O)Nc1ccc(C#N)c(Cl)c1)C(F)(F)F` (stereo not shown) [B, N-(3-chloro-4-cyanophenyl)-3,3,3-trifluoro-2-hydroxy-2-methylpropionamide], in the assay on potassium channels, the IC50 was 100 nM and the “opening effect” value was “excellent opening effect”. Besides, at androgen receptors, the IC50 stood at 500 nM and the “affinity” value is “good affinity”.

On to `CC(O)(C(=O)Nc1ccc([N+](=O)[O-])c(C(F)(F)F)c1)C(F)(F)F` (stereo not shown) [F, N-(4-nitro-3-(trifluoromethyl)phenyl)-3,3,3-trifluoro-2-hydroxy-2-methylpropionamide, reference compound], for which, in the assay with potassium channels, the IC50 is over 10000 nM and the “opening effect” value is given as “poor opening effect”. In addition, the IC50 at androgen receptors (setting [1]) was over 10000 nM. The “affinity” value on androgen receptors was “poor affinity”.

In the case of `CC(O)(C(=O)Nc1ccc(Cl)c(Cl)c1)C(F)(F)F` (stereo not shown) [C, N-(3,4-dichlorophenyl)-3,3,3-trifluoro-2-hydroxy-2-methylpropionamide], the IC50 came to 2000 nM in the assay with potassium channels and 1000 nM on androgen receptors (setting [1]). Besides, the “opening effect” value in the assay with potassium channels is recorded as “excellent opening effect”. Further, the “affinity” value on androgen receptors is given as “good affinity”.

On to `CC(O)(C(=O)Nc1ccc(C#N)c(C#N)c1)C(F)(F)F` (stereo not shown) [E, N-(3,4-dicyanophenyl)-3,3,3-trifluoro-2-hydroxy-2-methylpropionamide], for which, in the assay with potassium channels, the half-maximal inhibitory concentration (IC50) is 1000 nM and the “opening effect” value was “excellent opening effect”. Also, on androgen receptors, the IC50 was found to be 10000 nM and the “affinity” value is listed as “good affinity”.

Take `CC(O)(C(=O)Nc1ccc(C#N)cc1)C(F)(F)F` (stereo not shown) [G, N-(4-cyanophenyl)-3,3,3-trifluoro-2-hydroxy-2-methylpropionamide, reference compound]: the IC50 with potassium channels is 10000 nM; on androgen receptors (setting [1]) it was over 10000 nM. Besides, in the assay on potassium channels, the “opening effect” value is given as “poor opening effect”. Besides, on androgen receptors, the “affinity” value is reported as “poor affinity”.
